We go through two compounds from ChEMBL document CHEMBL5131484, “Design and synthesis of adamantane-1-carbonyl thiourea derivatives as potent and selective inhibitors of h-P2X4 and h-P2X7 receptors: An Emerging therapeutic tool for treatment of inflammation and neurological disorders” (Eur J Med Chem, 2022).

One data set has as its system HeLa. Briefly: Cytotoxicity against human HeLa cells assessed as reduction in cell viability at 50 uM incubated for 24 hrs by MTT assay relative to control. Format: functional. Background: Tetrazolium dyes change colour on reduction, which living cells bring about.
For data set [1], the target named is T1, P2X purinoceptor 7 (Homo sapiens, UniProt Q99572).
T1 sequence (Q99572 whole entry): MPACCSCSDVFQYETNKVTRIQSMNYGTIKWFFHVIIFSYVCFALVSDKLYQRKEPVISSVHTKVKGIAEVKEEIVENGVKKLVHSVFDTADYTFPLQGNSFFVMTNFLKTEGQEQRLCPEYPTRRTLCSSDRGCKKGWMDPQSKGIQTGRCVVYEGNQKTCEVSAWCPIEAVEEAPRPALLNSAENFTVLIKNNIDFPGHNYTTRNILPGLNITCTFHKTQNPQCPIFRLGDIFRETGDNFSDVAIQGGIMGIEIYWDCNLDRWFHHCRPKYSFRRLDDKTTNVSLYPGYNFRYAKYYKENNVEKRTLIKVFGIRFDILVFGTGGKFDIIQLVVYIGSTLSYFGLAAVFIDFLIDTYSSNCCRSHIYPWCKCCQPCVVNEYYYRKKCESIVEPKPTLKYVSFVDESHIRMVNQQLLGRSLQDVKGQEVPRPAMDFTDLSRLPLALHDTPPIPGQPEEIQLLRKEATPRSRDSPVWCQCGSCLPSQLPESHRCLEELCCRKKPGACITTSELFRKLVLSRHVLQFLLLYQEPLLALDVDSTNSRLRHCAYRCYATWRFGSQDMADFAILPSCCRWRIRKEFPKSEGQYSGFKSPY
Briefly: Negative allosteric modulation activity at human P2X7 receptor expressed in human 1321N1 cells assessed as reduction in ethidium bromide dye uptake preincubated for 15 mins followed by BzATP addition and measured after 30 mins by Ethidium bromide dye based fluorescence plate reader analysis. Format: cell-based.

The nature of data set [2]: Cytotoxicity against human 1321N1 cells assessed as reduction in cell viability at 50 uM incubated for 24 hrs by MTT assay relative to control. Format: functional.
The target of data set [3] is T2, P2X purinoceptor 4 (Homo sapiens) (UniProt Q99571).
T2 sequence (whole entry): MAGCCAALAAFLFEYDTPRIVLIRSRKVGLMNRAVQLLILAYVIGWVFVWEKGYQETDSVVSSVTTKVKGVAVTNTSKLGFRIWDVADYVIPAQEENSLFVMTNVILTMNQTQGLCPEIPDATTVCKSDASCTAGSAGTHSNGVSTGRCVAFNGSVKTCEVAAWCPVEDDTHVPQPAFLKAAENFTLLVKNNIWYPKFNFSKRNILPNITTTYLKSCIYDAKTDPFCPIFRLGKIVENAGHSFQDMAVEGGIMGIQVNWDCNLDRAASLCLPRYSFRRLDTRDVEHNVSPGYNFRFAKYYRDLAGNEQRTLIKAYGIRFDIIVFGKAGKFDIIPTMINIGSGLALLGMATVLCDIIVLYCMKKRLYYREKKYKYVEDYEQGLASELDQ
Briefly: Negative allosteric modulation activity at human P2X4 receptor expressed in human 1321N1 cells assessed as reduction in intracellular Ca2+ influx incubated for 30 mins by Fura-2 AM based fluorescence assay relative to control. Type of data set: cell-based.

The target of data set [4] is T3, P2X purinoceptor 7 (Homo sapiens) (UniProt Q99572).
T3 sequence (whole entry): T1 sequence (Q99572 whole entry)
Briefly: Negative allosteric modulation activity at human P2X7 receptor expressed in human 1321N1 cells assessed as ATP induced calcium response by measuring maximal ATP efficacy at 40 nM relative to control. As to conditions: filed as negative allosteric modulator. Format: cell-based.

A short description of data set [5]: Cytotoxicity against human HEK293 cells assessed as reduction in cell viability at 50 uM incubated for 24 hrs by MTT assay relative to control. Type of data set: toxicity, cell-based. To be noted: read-out: INH.
The target of data set [6] is T4, P2X purinoceptor 2 (Homo sapiens) (UniProt Q9UBL9).
T4 sequence (whole entry): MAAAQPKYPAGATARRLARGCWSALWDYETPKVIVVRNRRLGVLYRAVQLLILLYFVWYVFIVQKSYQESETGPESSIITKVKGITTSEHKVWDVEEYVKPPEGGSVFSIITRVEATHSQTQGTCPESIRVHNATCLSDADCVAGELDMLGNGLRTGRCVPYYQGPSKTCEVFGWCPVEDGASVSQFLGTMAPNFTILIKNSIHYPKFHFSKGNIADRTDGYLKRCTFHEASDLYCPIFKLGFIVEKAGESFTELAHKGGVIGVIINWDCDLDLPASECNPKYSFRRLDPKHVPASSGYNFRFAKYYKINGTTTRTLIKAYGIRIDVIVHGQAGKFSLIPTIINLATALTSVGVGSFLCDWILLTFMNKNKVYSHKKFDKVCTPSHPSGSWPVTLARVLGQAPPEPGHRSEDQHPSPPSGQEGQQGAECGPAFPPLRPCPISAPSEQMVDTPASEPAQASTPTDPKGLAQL
Briefly: Negative allosteric modulation activity at human P2X2 receptor expressed in human 1321N1 cells assessed as reduction in intracellular Ca2+ influx incubated for 30 mins by Fura-2 AM based fluorescence assay relative to control. Format: cell-based.

Data set [7] has as its target T3, P2X purinoceptor 7 (Homo sapiens). Briefly: Negative allosteric modulation activity at human P2X7 receptor expressed in human 1321N1 cells assessed as reduction in ethidium bromide dye uptake at 20 uM preincubated for 15 mins followed by BzATP addition and measured after 30 mins by Ethidium bromide dye based fluorescence plate reader analysis relative to control. Format: cell-based. To be noted: filed as negative allosteric modulator, time 45.0 min.

Data set [8] has the same target. Put plainly: Negative allosteric modulation activity at human P2X7 receptor expressed in human 1321N1 cells assessed as ATP induced calcium response by measuring maximal ATP efficacy at 200 nM relative to control. Type of data set: cell-based.
For a further data set, the target named is P2X purinoceptor 5 (Homo sapiens, UniProt Q93086). Briefly: Negative allosteric modulation activity at human P2X5 receptor expressed in human 1321N1 cells assessed as reduction in intracellular Ca2+ influx incubated for 30 mins by Fura-2 AM based fluorescence assay relative to control. Type of data set: cell-based.
Sequence of P2X purinoceptor 5 (Q93086 whole entry): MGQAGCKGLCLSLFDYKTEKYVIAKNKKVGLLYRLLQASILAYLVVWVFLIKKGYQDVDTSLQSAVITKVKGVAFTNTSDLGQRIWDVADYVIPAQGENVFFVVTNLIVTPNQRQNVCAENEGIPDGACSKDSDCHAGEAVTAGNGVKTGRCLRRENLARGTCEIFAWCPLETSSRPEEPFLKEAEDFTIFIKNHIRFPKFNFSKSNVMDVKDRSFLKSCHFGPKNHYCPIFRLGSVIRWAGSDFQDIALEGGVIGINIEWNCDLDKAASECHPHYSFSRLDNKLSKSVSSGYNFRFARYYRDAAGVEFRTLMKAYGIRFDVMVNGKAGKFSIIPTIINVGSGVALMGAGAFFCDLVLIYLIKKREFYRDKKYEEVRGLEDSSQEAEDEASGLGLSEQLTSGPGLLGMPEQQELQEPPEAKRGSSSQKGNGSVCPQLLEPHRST
The target of data set [9] is T3, P2X purinoceptor 7 (Homo sapiens). Briefly: Negative allosteric modulation activity at human P2X7 receptor expressed in human 1321N1 cells assessed as ATP induced calcium response by measuring maximal ATP efficacy at 100 nM relative to control. Format: cell-based. To be noted: filed as negative allosteric modulator.
The target in data set [10] is T2, P2X purinoceptor 4 (Homo sapiens). Briefly: Negative allosteric modulation activity at human P2X4 receptor expressed in human 1321N1 cells assessed as ATP induced calcium response by measuring maximal ATP efficacy at 40 nM relative to control. As to conditions: filed as negative allosteric modulator. Format: cell-based.
The target of data set [11] is T1, P2X purinoceptor 7. Put plainly: Negative allosteric modulation activity at human P2X7 receptor expressed in human 1321N1 cells assessed as reduction in intracellular Ca2+ influx incubated for 30 mins by Fura-2 AM based fluorescence assay. Type of data set: cell-based.
The target of data set [12] is T2, P2X purinoceptor 4 (Homo sapiens). Put plainly: Negative allosteric modulation activity at human P2X4 receptor expressed in human 1321N1 cells assessed as ATP induced calcium response by measuring maximal ATP efficacy at 100 nM relative to control. Format: cell-based. To be noted: filed as negative allosteric modulator.
The target is the same in data set [13]. Put plainly: Negative allosteric modulation activity at human P2X4 receptor expressed in human 1321N1 cells assessed as ATP induced calcium response by measuring maximal ATP efficacy at 200 nM relative to control. Type of data set: cell-based.

For orientation: inhibition means how much of the control response was suppressed. By IC50 is commonly meant the concentration that inhibits the measured activity by half. In general, Emax refers to the greatest response seen or fitted, relative to the assay's reference. `O=C(NC(=S)Nc1cccc2cccnc12)C12CC3CC(CC(C3)C1)C2`: the inhibition at 50 µM with HeLa came out at 6.22%; in data set [2], 9.12%. For the same compound, the IC50 at P2X purinoceptor 7 [1] stood at 0.068 µM. The inhibition amounted to 25% in [3], 15% in data set [6] and 32% on P2X purinoceptor 5. The Emax in [4] is 78%; in [7] it was 42%; in data set [8], 31%; in data set [9], 59%. Besides, in [5], the cytotoxicity at 24 h, 50 µM amounted to 5.05%.

For the compound `CC(C)c1ccc(NC(=S)NC(=O)C23CC4CC(CC(C4)C2)C3)c(Br)c1`, the inhibition at 50 µM in the data set with HeLa was determined as 6.54%; in data set [2], 9.26%. Also, the cytotoxicity at 24 h, 50 µM in data set [5] turned out to be 4.28%. Also, the results for the inhibition (in data set [6]; on P2X purinoceptor 5) were 30% and 12%, respectively. The results for the Emax in [10], in data set [12] and in [13] were 68%, 45% and 32%, respectively. Besides, the IC50 at P2X purinoceptor 7 [11] was 25.2 µM.
